Reference: the supplement of paper PMC5908809

Key:
[1] = system: normal NK cells expanded with K562-aAPC; assay: percent inhibition of viability; higher = more inhibition; conditions: 72 h, IL-2 2.5 ng/mL
Method: (§1)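 Drug sensitivity and resistance testing on K562-aAPC-expanded normal NK cells: 5 concentrations (10-fold steps over a 10,000-fold range), 72 h at 37 °C, viability by CellTiter-Glo normalised to DMSO and benzethonium chloride controls; DSS from the fitted curve.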

[2] = system: normal NK cells expanded with K562-aAPC; assay: drug sensitivity score (DSS) (DSS units); higher = more sensitive; extreme values may be limits of the assay; conditions: 72 h; IL-2 2.5 ng/mL
Method: as §1

NK-YS (IL-2 2.5 ng/mL) [3] = assay: percent inhibition of viability; higher = more inhibition; conditions: 72 h
KHYG-1 (IL-2 2.5 ng/mL) [4] = assay: as above; conditions: 72 h
[5] = system: normal primary NK cells, pool 3 (3 donors) (IL-2 2.5 ng/mL); assay: as above; conditions: 72 h
KAI3 (IL-2 2.5 ng/mL) [6] = assay: as above; conditions: 72 h
NK-92 (IL-2 2.5 ng/mL) [7] = assay: as above; conditions: 72 h
[8] = system: normal primary NK cells, pool 1 (3 donors), resting (IL-2 0 ng/mL); assay: as above; conditions: 72 h
[9] = system: normal primary NK cells, pool 1 (3 donors) (IL-2 2.5 ng/mL); assay: as above; conditions: 72 h
NKL (IL-2 2.5 ng/mL) [10] = assay: as above; conditions: 72 h
YT (IL-2 2.5 ng/mL) [11] = assay: as above; conditions: 72 h
[12] = system: normal primary NK cells, pool 2 (3 donors) (IL-2 2.5 ng/mL); assay: as above; conditions: 72 h
IMC-1 (IL-2 20 ng/mL) [13] = assay: as above; conditions: 72 h
DERL-7 (IL-2 2.5 ng/mL) [14] = assay: as above; conditions: 72 h
SNK-6 (IL-2 2.5 ng/mL) [15] = assay: as above; conditions: 72 h
NK-YS (IL-2 2.5 ng/mL) [16] = assay: drug sensitivity score (DSS) (DSS units); higher = more sensitive; extreme values may be limits of the assay; conditions: 72 h
KHYG-1 (IL-2 2.5 ng/mL) [17] = assay: as above; conditions: 72 h
[18] = system: normal primary NK cells, pool 3 (3 donors) (IL-2 2.5 ng/mL); assay: as above; conditions: 72 h
KAI3 (IL-2 2.5 ng/mL) [19] = assay: as above; conditions: 72 h
NK-92 (IL-2 2.5 ng/mL) [20] = assay: as above; conditions: 72 h
[21] = system: normal primary NK cells, pool 1 (3 donors), resting (IL-2 0 ng/mL); assay: as above; conditions: 72 h
[22] = system: normal primary NK cells, pool 1 (3 donors) (IL-2 2.5 ng/mL); assay: as above; conditions: 72 h
NKL (IL-2 2.5 ng/mL) [23] = assay: as above; conditions: 72 h
YT (IL-2 2.5 ng/mL) [24] = assay: as above; conditions: 72 h
[25] = system: normal primary NK cells, pool 2 (3 donors) (IL-2 2.5 ng/mL); assay: as above; conditions: 72 h
IMC-1 (IL-2 20 ng/mL) [26] = assay: as above; conditions: 72 h
DERL-7 (IL-2 2.5 ng/mL) [27] = assay: as above; conditions: 72 h
SNK-6 (IL-2 2.5 ng/mL) [28] = assay: as above; conditions: 72 h

CNC(=O)c1cc(Oc2ccc(NC(=O)Nc3ccc(Cl)c(C(F)(F)F)c3)cc2)ccn1 [Sorafenib] (max concentration tested 1000 nM)
percent inhibition of viability [%]
Conditions | 0.1 nM | 1 nM | 10 nM | 100 nM | 1000 nM
DERL-7 (IL-2 2.5 ng/mL) [14] | -14.3 | 2.59 | 4.15 | 1.1 | 25.2
IMC-1 (IL-2 20 ng/mL) [13] | -6.25 | -2.7 | -8.4 | -3.64 | -1.65
KAI3 (IL-2 2.5 ng/mL) [6] | 2.87 | 5.97 | 0.72 | 2.84 | -4.41
KHYG-1 (IL-2 2.5 ng/mL) [4] | -1.09 | 0 | -1.1 | 2.71 | -0.82
NK-92 (IL-2 2.5 ng/mL) [7] | -2.2 | -1.4 | -3.13 | -5.91 | 25.7
NK-YS (IL-2 2.5 ng/mL) [3] | -0.65 | -1.62 | -0.99 | 3.14 | 5.95
NKL (IL-2 2.5 ng/mL) [10] | -18.1 | -17.9 | -14.8 | -9.31 | -11.3
SNK-6 (IL-2 2.5 ng/mL) [15] | 9.25 | 14.7 | 5.19 | 17.7 | 30.7
YT (IL-2 2.5 ng/mL) [11] | -0.23 | -2.47 | 0.91 | 1.22 | 3.17
[1] | -0.62 | -4.84 | 0.63 | -4.73 | -7.05
[5] | -4.53 | -9.01 | -3.28 | -8.55 | -2.67
[8] | -6.78 | -15.6 | 0.71 | 9.47 | 20.5
[9] | -10 | -8.22 | -3.22 | -10.4 | -2.85
[12] | -8.52 | -3.3 | -11.4 | -7 | -14.1

Conditions | drug sensitivity score
DERL-7 (IL-2 2.5 ng/mL) [27] | 1.11
IMC-1 (IL-2 20 ng/mL) [26] | 0
KAI3 (IL-2 2.5 ng/mL) [19] | 0
KHYG-1 (IL-2 2.5 ng/mL) [17] | 0
NK-92 (IL-2 2.5 ng/mL) [20] | 0.73
NK-YS (IL-2 2.5 ng/mL) [16] | 0
NKL (IL-2 2.5 ng/mL) [23] | 0
SNK-6 (IL-2 2.5 ng/mL) [28] | 3.94
YT (IL-2 2.5 ng/mL) [24] | 0
[2] | 0
[18] | 0
[21] | 1.53
[22] | 0
[25] | 0
